Assay results published in PubChem BioAssay (NCI).
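Following 48 hours of exposure in 96-well plates, responses at five concentrations were used to interpolate endpoints linearly. GI50 marks 50% less growth. At the TGI there is no net growth.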

Legend:
Assay in all cases: DTP human tumour cell line panel, 48 h
[1] = tested on: MDA-MB-231 breast
[2] = tested on: A498 renal
[3] = tested on: 786-0 renal
[4] = tested on: SF-539 CNS
[5] = tested on: LOX IMVI melanoma
[6] = tested on: RPMI-8226 leukemia
[7] = tested on: COLO 205 colon
[8] = tested on: RXF 393 renal
[9] = tested on: SR leukemia
[10] = tested on: MOLT-4 leukemia
[11] = tested on: SK-MEL-28 melanoma
[12] = tested on: IGROV1 ovarian

Compound	TGI [1] [µM]	TGI [2] [µM]	TGI [3] [µM]	TGI [4] [µM]	TGI [5] [µM]	TGI [6] [µM]	TGI [7] [µM]	TGI [8] [µM]	TGI [9] [µM]	TGI [10] [µM]	TGI [11] [µM]	TGI [12] [µM]	GI50 [6] [µM]	GI50 [7] [µM]	GI50 [9] [µM]	GI50 [10] [µM]
COC(=O)c1sc2c(c1C(=O)OC)C(=NC(C)(C)C)SC2=NC(C)(C)C	37.3	32.5	30.4	34.1	38.6	41.4	34	19.3	33.8	31.8	32	36.2				
COc1cc(NCCC(=O)O)c2ncccc2c1	> 100	> 100	> 100		> 100			> 100	> 100	> 100	> 100	> 100				
c1ccc2c(c1)SP1Sc3ccccc3P21 (stereo not given)		> 100		> 100	> 100	> 100	> 100	> 100		> 100	> 100	> 100				
CN(c1ccccc1)c1nc(=[N+]2CCCC2)ss1		> 100	> 100			> 100	> 100	8.85	> 100	> 100	> 100	> 100				
CO/C=C1\OC(=O)C=C1OC		> 100		> 100	> 100	> 100	> 100	> 100		> 100	> 100	> 100				
Clc1cc(OCc2nn3c(Cc4ccccc4)nnc3s2)c(Cl)cc1OCc1nn2c(Cc3ccccc3)nnc2s1	> 100	88.5	> 100	> 100	> 100	30.1	> 100	75.4	10.4	19.8	> 100	> 100				
CC[C@@H]([C@H](O)c1ccccc1Cl)[N+](=O)[O-]	> 100	> 100	> 100	> 100	> 100	> 100	> 100	> 100	> 100		> 100	> 100				
Nc1nc(Cl)c(N)c(NCC2(CO)CCC(CCc3ccccc3)C2)n1 (stereo not given)	34.4	49.5	61.2	33.7	25.9	47.7	25.1	37.2		28	31.1	> 62.4				
Cc1ccc(Nc2nc(=O)c3c([nH]c4ccccc43)s2)cc1	33.8	37.4	27.6	31.6	27.1	23.6	24.7		> 100	> 100	> 100	35.1				
c1ccc2c(c1)SCCc1cn[nH]c1-2		> 100		> 100	> 100		> 100	> 100		> 100	> 100	> 100				
COCCNCc1ccc(-c2cc3nccc(Oc4ccc(NC(=O)C5(C(=O)Nc6ccc(F)cc6)CC5)cc4F)c3s2)nc1						5.07	3.68		6.04	4.26			2.05	1.55	1.96	1.46
c1ccc(C2=NN=C3C(c4ccccc4)=Nc4ccccc4N3C2)cc1	> 100	> 100	> 100	> 100	> 100	40.8	52.8	> 100		> 52.3	> 100	> 100				
